Article PMC8236845
pEC50, pIC50: −log10 of the molar value. Counter-ions that a name gives are not always drawn. Numbered stars: 1 amine (or outer) side, 2 acyl side, 3 side chain; on linkers, the order of the positions; unused ones are H or OH. Bridge positions count the residues as written; N and C are the ends. Square brackets hold non-standard residues; d marks the D form. Peptide text beside a SMILES is read from it. * marks the point of attachment. pTerphenylCO(4''-OnC5H11) = CCCCCOc1ccc(-c2ccc(-c3ccc(C(=O)*)cc3)cc2)cc1; Orn(4R-OH,5R-OH) = O=C([C@H](C[C@@H](O)[C@@H](O)N[*:3])N[*:1])[*:2]; Tetradecanoyl(10R,12S-Me2) = CC[C@H](C)C[C@H](C)CCCCCCCCC(=O)*; hTyr(3S-OH,4S-OH) = N[C@H](C(=O)O)[C@H](O)[C@@H](O)c1ccc(O)cc1; Pro(3S-OH,4S-Me) = C[C@H]1CN[C@H](C(=O)O)[C@H]1O; Gln(3R-OH) = NC(=O)C[C@@H](O)[C@H](N)C(=O)O; Pro(3S-OH) = O=C(O)[C@H]1NCC[C@@H]1O; Hyp = O=C(O)[C@@H]1C[C@@H](O)CN1

biological target: binding of recombinant, trimeric SARS-CoV-2 spike protein to recombinant human ACE2 (Severe acute respiratory syndrome coronavirus 2, UniProt P0DTC2, K986P/R682G/R683S/R685S/V987P); experiment: biochemical; design: species or system SARS-CoV-2 / human; conditions: not given

Compound	% Inhibition	% Inhibition, Screen	pIC50	inhibition of spike-ACE2 binding in the screen	% inhibition in first-round screen
CO[C@H]1C[C@@H]2CC[C@@H](C)[C@@](O)(O2)C(=O)C(=O)N2CCCC[C@H]2C(=O)O[C@H]([C@H](C)C[C@@H]2CC[C@@H](OC(=O)C(C)(CO)CO)[C@H](OC)C2)CC(=O)[C@H](C)/C=C(\C)[C@@H](O)[C@@H](OC)C(=O)[C@H](C)C[C@H](C)/C=C/C=C/C=C/1C [Temsirolimus (CCI-779, NSC 683864), Temsirolimus]	96%				
O=C(O)CCCC[C@@H]1SC[C@@H]2NC(=O)N[C@@H]21 [Biotin (Vitamin B7), Biotin]	91%				
COC[C@H]1C[C@@H](c2nc(-c3ccc4c(c3)COc3cc5c(ccc6nc([C@@H]7CC[C@H](C)N7C(=O)[C@@H](NC(=O)OC)C(C)C)[nH]c65)cc3-4)c[nH]2)N(C(=O)[C@H](NC(=O)OC)c2ccccc2)C1 [Velpatasvir]	93%				
CC(=O)O[C@@]12CO[C@@H]1C[C@H](O)[C@@]1(C)C(=O)[C@H](O)C3=C(C)[C@@H](OC(=O)[C@H](O)[C@@H](NC(=O)OC(C)(C)C)c4ccccc4)C[C@@](O)([C@@H](OC(=O)c4ccccc4)[C@H]21)C3(C)C [Docetaxel]		98%			
CN(C)c1ccc(C(=C2C=CC(=[N+](C)C)C=C2)c2ccc(N(C)C)cc2)cc1 [Crystal Violet]	98%				
CN1CCc2nc(C(=O)N[C@@H]3C[C@@H](C(=O)N(C)C)CC[C@@H]3NC(=O)C(=O)Nc3ccc(Cl)cn3)sc2C1 [Edoxaban]	95%				
C[C@@H](Oc1cc(-c2cnn(C3CCNCC3)c2)cnc1N)c1c(Cl)ccc(F)c1Cl [Crizotinib (PF-02341066), Crizotinib]		55%			
CNC(=O)c1cc(Oc2ccc(NC(=O)Nc3ccc(Cl)c(C(F)(F)F)c3)cc2)ccn1 [Sorafenib Tosylate]		21%			
CCCCCCCCN=c1ccn(CCCCCCCCCCn2ccc(=NCCCCCCCC)cc2)cc1 [Octenidine Dihydrochloride]	100%				
C[C@@H]1C[C@H]2[C@@H]3CCC4=CC(=O)C=C[C@]4(C)[C@@]3(Cl)[C@@H](O)C[C@]2(C)[C@@]1(OC(=O)c1ccco1)C(=O)CCl [Mometasone furoate]	98%				
COC(=O)N[C@H](C(=O)N1CCC[C@H]1c1nc(-c2ccc(-c3ccc(-c4c[nH]c([C@@H]5CCCN5C(=O)[C@@H](NC(=O)OC)C(C)C)n4)cc3)cc2)c[nH]1)C(C)C [Daclatasvir]	99%				
CCCCCOc1ccc(-c2ccc(-c3ccc(C(=O)N[C@H]4C[C@@H](O)[C@@H](O)NC(=O)[C@@H]5[C@@H](O)[C@@H](C)CN5C(=O)[C@H]([C@@H](C)O)NC(=O)[C@H]([C@H](O)[C@@H](O)c5ccc(O)cc5)NC(=O)[C@@H]5C[C@@H](O)CN5C(=O)[C@H]([C@@H](C)O)NC4=O)cc3)cc2)cc1 [Anidulafungin] ({pTerphenylCO(4''-OnC5H11)}-[Orn(4R-OH,5R-OH)]T[Hyp][hTyr(3S-OH,4S-OH)]T[Pro(3S-OH,4S-Me)]; lactam 1-C)	99%				
CN1CCN(c2ccc(C(=O)Nc3n[nH]c4ccc(Cc5cc(F)cc(F)c5)cc34)c(NC3CCOCC3)c2)CC1 [Entrectinib]	90%		4.23		
COc1cc([C@@H]2c3cc4c(cc3[C@@H](O[C@@H]3O[C@@H]5CO[C@@H](c6cccs6)O[C@H]5[C@H](O)[C@H]3O)[C@H]3COC(=O)[C@H]23)OCO4)cc(OC)c1O [Teniposide]	97%				
Cc1ccc(NC(=O)c2ccc(CN3CCN(C)CC3)cc2)cc1Nc1nccc(-c2cccnc2)n1 [Imatinib]				failed to inhibit	
CO[C@H]1C[C@H](O[C@H]2[C@H](C)O[C@@H](O[C@@H]3/C(C)=C/C[C@@H]4C[C@@H](C[C@]5(C=C[C@H](C)[C@@H](C6CCCCC6)O5)O4)OC(=O)[C@@H]4C=C(C)[C@@H](O)[C@H]5OC/C(=C\C=C\[C@@H]3C)[C@]54O)C[C@@H]2OC)O[C@@H](C)[C@@H]1O [Doramectin]	96%				
N#Cc1nn(-c2c(Cl)cc(C(F)(F)F)cc2Cl)c(N)c1[S+]([O-])C(F)(F)F (stereo not shown) [Fipronil]	91%				
COC(=O)N[C@H](C(=O)N1CCC[C@H]1c1nc(-c2ccc3c(c2)O[C@@H](c2ccccc2)n2c-3cc3cc(-c4c[nH]c([C@@H]5CCCN5C(=O)[C@@H](NC(=O)OC)C(C)C)n4)ccc32)c[nH]1)C(C)C [Elbasvir]	100%				
Cc1nc(Nc2ncc(C(=O)Nc3c(C)cccc3Cl)s2)cc(N2CCN(CCO)CC2)n1.Cl [Dasatinib HCl]	98%				
CO[C@H]1C[C@H](O[C@@H]2/C(C)=C/C[C@@H]3C[C@@H](C[C@]4(CC[C@H](C)[C@@H](C5CCCCC5)O4)O3)OC(=O)[C@@H]3C=C(C)/C(=N/O)[C@H]4OC/C(=C\C=C\[C@@H]2C)[C@]43O)O[C@@H](C)[C@@H]1O [Selamectin]	97%				
COc1cc([C@@H]2c3cc4c(cc3[C@H](O)[C@H]3COC(=O)[C@@H]23)OCO4)cc(OC)c1OC [Picropodophyllin]	98%				
C=C(NC(=O)C(=C)NC(=O)c1csc(C2=N[C@@H]3c4csc(n4)[C@H]4NC(=O)c5csc(n5)[C@H]([C@](C)(O)[C@@H](C)O)NC(=O)[C@H]5CSC(=N5)/C(=C/C)NC(=O)[C@H]([C@@H](C)O)NC(=O)c5csc(n5)[C@]3(CC2)NC(=O)[C@H](C)NC(=O)C(=C)NC(=O)[C@H](C)NC(=O)[C@H]([C@@H](C)CC)N[C@@H]2C=Cc3c([C@H](C)O)cc(nc3[C@H]2O)C(=O)O[C@@H]4C)n1)C(N)=O [Thiostrepton]	99%				
Nc1nc(N)c2nc(-c3ccccc3)c(N)nc2n1 [Triamterene]	91%				
CON=C(C(=O)NC1C(=O)N2C(C(=O)OCOC(=O)C(C)(C)C)=C(C)CSC12)c1csc(N)n1 (stereo not shown) [Cefetamet Pivoxil Hydrochloride]	94%				

Compound	% Inhibition	% Inhibition, Screen	pIC50	inhibition of spike-ACE2 binding in the screen	% inhibition in first-round screen
COC(=O)N[C@H](C(=O)N1CCC[C@H]1C(=O)Nc1ccc([C@@H]2CC[C@@H](c3ccc(NC(=O)[C@@H]4CCCN4C(=O)[C@@H](NC(=O)OC)C(C)C)cc3)N2c2ccc(C(C)(C)C)cc2)cc1)C(C)C [Ombitasvir (ABT-267), Ombitasvir]	92%				
COc1ccc2cc1Oc1ccc(cc1)C[C@H]1c3c(cc4c(c3Oc3cc5c(cc3OC)CCN(C)[C@@H]5C2)OCO4)CCN1C [Cepharanthine]	94%				
CN1CC(=O)N2[C@H](c3ccc4c(c3)OCO4)c3[nH]c4ccccc4c3C[C@@H]2C1=O [Tadalafil]	96%				
C=CC(=O)Nc1cccc(Oc2nc(Nc3ccc(N4CCN(C)CC4)cc3)nc3ccsc23)c1 [Olmutinib]	98%				
Cn1cncc1[C@@](N)(c1ccc(Cl)cc1)c1ccc2c(c1)c(-c1cccc(Cl)c1)cc(=O)n2C [Tipifarnib]	98%				
Cc1cn(-c2cc(NC(=O)c3ccc(C)c(Nc4nccc(-c5cccnc5)n4)c3)cc(C(F)(F)F)c2)cn1.Cl [Nilotinib HCl, Nilotinib Hydrochloride]	99%				
Cefotiam Hexetil Hydrochloride	99%				
C[C@]12CC[C@@H]3c4ccc(OC(=O)c5ccccc5)cc4CC[C@H]3[C@@H]1CC[C@@H]2O [Estradiol benzoate]	93%				
COc1ccc(CN=c2[nH]c(N3CCC[C@H]3CO)ncc2C(=O)NCc2ncccn2)cc1Cl [Avanafil]	99%				
COC(=O)N[C@H](C(=O)N1CCC[C@H]1c1nc(-c2ccc(-c3ccc(-c4c[nH]c([C@@H]5CCCN5C(=O)[C@@H](NC(=O)OC)C(C)C)n4)cc3)cc2)c[nH]1)C(C)C [Daclatasvir Dihydrochloride]	97%				
Avermectin B1	98%				
CC[C@H](C)C[C@H](C)CCCCCCCCC(=O)N[C@H]1C[C@@H](O)[C@@H](O)NC(=O)[C@@H]2[C@@H](O)CCN2C(=O)[C@H]([C@H](O)CC(N)=O)NC(=O)[C@H]([C@H](O)[C@@H](O)c2ccc(O)cc2)NC(=O)[C@@H]2C[C@@H](O)CN2C(=O)[C@H]([C@@H](C)O)NC1=O [Pneumocandin B0] ({Tetradecanoyl(10R,12S-Me2)}-[Orn(4R-OH,5R-OH)]T[Hyp][hTyr(3S-OH,4S-OH)][Gln(3R-OH)][Pro(3S-OH)]; lactam 1-C)	98%				
O=C(O)c1cn(C2CC2)c2cc(N3CCNCC3)c(F)cc2c1=O [Ciprofloxacin Hydrochloride Hydrate]	93%				
Cc1ccc(-c2cc(C(F)(F)F)nn2-c2ccc(S(N)(=O)=O)cc2)cc1 [Celecoxib]	93%		4.21		
Ivermectin					89%
CC[C@@]1(O)C(=O)OCc2c1cc1n(c2=O)Cc2cc3cc(O)ccc3nc2-1 [Hydroxycamptothecin]	99%				
CN(C)c1ccc2nc3ccc(=[N+](C)C)cc-3sc2c1 [Methylene Blue]					44%
CC[C@@]1(O)C(=O)OCc2c1cc1n(c2=O)Cc2c-1nc1ccccc1c2CCNC(C)C [Belotecan]				did not inhibit	
CCOc1cc([C@@H](CS(C)(=O)=O)N2C(=O)c3cccc(NC(C)=O)c3C2=O)ccc1OC [Apremilast (CC-10004), Apremilast]	96%				
C[C@@H](O[C@H]1OCCN(Cc2n[nH]c(=O)[nH]2)[C@H]1c1ccc(F)cc1)c1cc(C(F)(F)F)cc(C(F)(F)F)c1 [Aprepitant]	94%				
CO[C@H]1C[C@@H]2CC[C@@H](C)[C@@](O)(O2)C(=O)C(=O)N2CCCC[C@H]2C(=O)O[C@H]([C@H](C)C[C@@H]2CC[C@@H](OCCO)[C@H](OC)C2)CC(=O)[C@H](C)/C=C(\C)[C@@H](O)[C@@H](OC)C(=O)[C@H](C)C[C@H](C)/C=C/C=C/C=C/1C [Everolimus (RAD001), Everolimus]	94%				
Cc1cn(-c2cc(NC(=O)c3ccc(C)c(Nc4nccc(-c5cccnc5)n4)c3)cc(C(F)(F)F)c2)cn1 [Nilotinib AMN-107, Nilotinib]	99%				
NC1CCN(c2nc3c(cc2F)c(=O)c(C(=O)O)cn3-c2ccc(F)cc2F)C1 (stereo not shown) [Tosufloxacin (P-Toluenesulfonic Acid), Tosufloxacin]	97%				
CCc1c2c(nc3ccc(OC(=O)N4CCC(N5CCCCC5)CC4)cc13)-c1cc3c(c(=O)n1C2)COC(=O)[C@]3(O)CC [Irinotecan]				did not inhibit	

same assay, conditions: read-out: EC 50

Compound	pEC50
CO[C@H]1C[C@H](O[C@H]2[C@H](C)O[C@@H](O[C@@H]3/C(C)=C/C[C@@H]4C[C@@H](C[C@]5(C=C[C@H](C)[C@@H](C6CCCCC6)O5)O4)OC(=O)[C@@H]4C=C(C)[C@@H](O)[C@H]5OC/C(=C\C=C\[C@@H]3C)[C@]54O)C[C@@H]2OC)O[C@@H](C)[C@@H]1O [Doramectin]	4.89

same assay, conditions: read-out: EC50 (corrected)

Compound	pEC50
Cc1nc(Nc2ncc(C(=O)Nc3c(C)cccc3Cl)s2)cc(N2CCN(CCO)CC2)n1.Cl [Dasatinib HCl]	4.18
Cefotiam Hexetil Hydrochloride	4.43
CC[C@H](C)C[C@H](C)CCCCCCCCC(=O)N[C@H]1C[C@@H](O)[C@@H](O)NC(=O)[C@@H]2[C@@H](O)CCN2C(=O)[C@H]([C@H](O)CC(N)=O)NC(=O)[C@H]([C@H](O)[C@@H](O)c2ccc(O)cc2)NC(=O)[C@@H]2C[C@@H](O)CN2C(=O)[C@H]([C@@H](C)O)NC1=O [Pneumocandin B0] ({Tetradecanoyl(10R,12S-Me2)}-[Orn(4R-OH,5R-OH)]T[Hyp][hTyr(3S-OH,4S-OH)][Gln(3R-OH)][Pro(3S-OH)]; lactam 1-C)	4.14

same assay, conditions: read-out: IC50 Mean

Compound	pIC50
CO[C@H]1C[C@H](O[C@H]2[C@H](C)O[C@@H](O[C@@H]3/C(C)=C/C[C@@H]4C[C@@H](C[C@]5(C=C[C@H](C)[C@@H](C6CCCCC6)O5)O4)OC(=O)[C@@H]4C=C(C)[C@@H](O)[C@H]5OC/C(=C\C=C\[C@@H]3C)[C@]54O)C[C@@H]2OC)O[C@@H](C)[C@@H]1O [Doramectin]	4.89
